“And” between values parts separate entries of the source, which are not always exact repeats. Equal values may be shown once.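 Interpolation was linear, between the two tested concentrations surrounding the appropriate level; five concentrations were tested over 48 hours in 96-well plates. GI50: concentration for 50% inhibition of growth. TGI marks complete inhibition of growth.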
Key:
Test in all cases: growth of human tumour cells (NCI), 48 h
SK-OV-3 ovarian = tested on: SK-OV-3 ovarian
SK-MEL-28 melanoma = tested on: SK-MEL-28 melanoma
U251 CNS = tested on: U251 CNS
TK-10 renal = tested on: TK-10 renal
HCT-116 colon = tested on: HCT-116 colon
HL-60(TB) leukemia = tested on: HL-60(TB) leukemia
NCI-H23 lung = tested on: NCI-H23 lung
NCI-H460 lung = tested on: NCI-H460 lung
SN12C renal = tested on: SN12C renal
A549 NSCLC = tested on: A549 NSCLC

| Compound | GI50 (SK-OV-3 ovarian) | TGI (SK-OV-3 ovarian) | GI50 (SK-MEL-28 melanoma) | TGI (SK-MEL-28 melanoma) | GI50 (U251 CNS) | TGI (U251 CNS) | GI50 (TK-10 renal) | TGI (TK-10 renal) | GI50 (HCT-116 colon) | TGI (HCT-116 colon) | GI50 (HL-60(TB) leukemia) | TGI (HL-60(TB) leukemia) | GI50 (NCI-H23 lung) | TGI (NCI-H23 lung) | GI50 (NCI-H460 lung) | TGI (NCI-H460 lung) | GI50 (SN12C renal) | TGI (SN12C renal) | GI50 (A549 NSCLC) | TGI (A549 NSCLC) |
| --- | --- | --- | --- | --- | --- | --- | --- | --- | --- | --- | --- | --- | --- | --- | --- | --- | --- | --- | --- | --- |
| O=C1c2ccccc2-c2c1c1ccccc1c(=O)n2CCCn1ccnc1 | 6.68 µM | > 100 µM | 3.47 µM | > 100 µM | 0.793 µM | 6.83 µM | 1.97 µM | 6.83 µM | 1.4 µM | 13.8 µM | 0.2 µM | 2.18 µM | 1.84 µM | 6.05 µM | 1.17 µM | 10.4 µM | 1.66 µM | 4.31 µM | 1.87 µM | 4.74 µM |
| CC12CCC(Br)C(C)(C)C1CC=C1C(=O)OCC1O2 (configuration not stated) |  | 29.9 µM |  | 28.6 µM |  | 23.2 µM |  | 28.5 µM |  | > 44.5 µM |  | > 100 µM |  | 32 µM |  | 36.2 µM |  | > 55.9 µM |  | > 57.9 µM |
| COc1ccc2c(c1)C(=O)c1c-2n(CCCI)c(=O)c2cc([N+](=O)[O-])ccc12 | 0.23 µM and 0.48 µM |  | 0.861 µM and 3.07 µM | 50 µM and > 100 µM | 0.138 µM and 0.047 µM | 5.64 µM and 1.27 µM | 33.1 µM and 19.4 µM | 50 µM and > 100 µM | 0.0721 µM and 0.0453 µM | 1.02 µM and 1.94 µM | 0.167 µM and 0.0526 µM | 2.26 µM and 0.822 µM | 0.16 µM and 0.119 µM | 0.988 µM and 1.27 µM | 0.0117 µM and 0.0296 µM |  | 0.105 µM and 0.312 µM |  | 0.316 µM and 0.402 µM | 50 µM and 40.9 µM |
| C=CC(Cl)(CBr)CCC(Br)C(C)(C)Cl (configuration not stated) |  | > 100 µM |  | 33.1 µM |  | 27.4 µM |  | 38.6 µM |  | 25.4 µM |  | 19.3 µM |  | 31.3 µM |  | 28 µM |  | 48.4 µM |  | 89.3 µM |
| CC(C)(c1ccccc1)c1ccc(OC#N)cc1 |  | > 100 µM |  | > 100 µM |  | > 100 µM |  | > 100 µM |  | > 65.7 µM |  | > 77.9 µM |  | > 100 µM |  | > 59.1 µM |  | > 100 µM |  | > 100 µM |
| NC(N)=NS(=O)(=O)c1ccc(Nc2c3ccccc3nc3c(C(=O)Nc4ccc(S(N)(=O)=O)cc4)cccc23)cc1 |  | > 100 µM |  | > 100 µM |  | > 100 µM |  | > 100 µM |  | > 100 µM |  | > 100 µM |  | > 100 µM |  | > 100 µM |  | > 100 µM |  | > 100 µM |
| COC(=O)Nc1nc2ccc(Br)cc2[nH]1 |  | 67.9 µM |  | > 100 µM |  | 87 µM |  | > 100 µM |  | > 100 µM |  | 90 µM |  | 80.7 µM |  | > 100 µM |  | > 100 µM |  | > 100 µM |
| N#C/C(=C\c1ccc(Br)cc1)n1nnc2ccc(F)cc21 | 4.85 µM | > 100 µM | 1.29 µM | 3.25 µM | 1.64 µM | 3.34 µM | 2.26 µM | 5.61 µM | 0.741 µM | 2.35 µM | 0.702 µM | 5.23 µM | 1.42 µM | 3.34 µM | 2.26 µM | 5.33 µM | 1.72 µM | 4.37 µM | 2.01 µM | 72.4 µM |
| C=C(c1ccccc1)[C@@]1(O)CC[C@@H]1N(CC#N)Cc1ccccc1 |  | > 100 µM |  | 28.8 µM |  | > 100 µM |  | 35.5 µM |  | 30.3 µM |  | > 62.1 µM |  | 68 µM |  | > 100 µM |  | 46.8 µM |  | > 73.5 µM |
| O=C1C(Cl)=C(NCc2ccco2)C(=O)c2ccccc21 | 40.3 µM | > 100 µM | 6.89 µM | 17.8 µM | 17 µM | > 93.7 µM | 22.1 µM | > 100 µM | 7.09 µM | 49.5 µM | 7.63 µM | > 76.9 µM | 2.5 µM | 10.4 µM | 4.78 µM | > 100 µM | 25.9 µM | > 100 µM | 7.61 µM | 31.1 µM |
| Cn1cc(-c2ccc(-c3ccc(C4=NC5(CC5)C(=O)N4C[C@@H]4CCN(C(=O)C5CC5)C4)cc3)cc2)cn1 | 29.9 µM | > 100 µM | 20.3 µM | 79 µM | 10.5 µM | 29 µM | 24 µM | 81.2 µM | 11.7 µM | > 100 µM | 0.0615 µM | 25.9 µM | 12.7 µM | 41.8 µM | 1.22 µM | 18 µM | 17.5 µM | 77.3 µM | 12.5 µM | 39.3 µM |
| C=CCC1C(=O)CC2(C)CC(=O)C(CC=C)C12C (configuration not stated) |  | > 100 µM |  | > 100 µM |  | > 100 µM |  | > 100 µM |  | > 100 µM |  | > 100 µM |  | > 100 µM |  | > 100 µM |  | > 100 µM |  | > 100 µM |
| O=C(NC12CC3CC(CC(C3)C1)C2)C(=O)c1c[nH]c2ccccc12 |  | 29.5 µM |  | 30.3 µM |  | 26.7 µM |  | 44.5 µM |  | 30.5 µM |  | 52.8 µM |  | 29.6 µM |  | 25.7 µM |  | 30.4 µM |  | 30.2 µM |
| CSc1nc(SC)c2c(CO)c(Br)n(Cc3ccccc3)c2n1 |  | 37.6 µM |  | > 100 µM |  | 26.3 µM |  | 79.4 µM |  | > 100 µM |  | > 100 µM |  | > 100 µM |  | 30.5 µM |  | > 100 µM |  | > 100 µM |
